Here are results for one molecule from patent publication US11872210B2, “Thiol isomerases inhibitors and use thereof” (WESTERN NEW ENGLAND UNIVERSITY, priority 2017, dated 2024).

One assay has as its target T1, ERp5 (Homo sapiens, UniProt Q15084).
T1 construct: purchased AbCam (Cambridge Mass.)
T1 sequence (Q15084 20-440): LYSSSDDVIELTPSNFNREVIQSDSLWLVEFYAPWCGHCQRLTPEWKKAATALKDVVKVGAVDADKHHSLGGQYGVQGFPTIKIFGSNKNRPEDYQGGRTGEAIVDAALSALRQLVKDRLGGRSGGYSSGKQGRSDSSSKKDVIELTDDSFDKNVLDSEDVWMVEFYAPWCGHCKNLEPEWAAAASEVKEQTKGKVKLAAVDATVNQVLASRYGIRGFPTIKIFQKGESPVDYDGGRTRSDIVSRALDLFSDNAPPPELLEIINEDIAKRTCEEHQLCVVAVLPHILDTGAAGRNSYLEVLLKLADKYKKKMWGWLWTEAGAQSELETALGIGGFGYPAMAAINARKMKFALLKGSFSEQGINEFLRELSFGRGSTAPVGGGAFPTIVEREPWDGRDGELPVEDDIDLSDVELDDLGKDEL
Put plainly: Insulin-based turbidometric assay of thiol isomerase inhibitory activity (ERp5). Format: biochemical. Conditions: insulin turbidity assay, 6 point dose curve. An excerpt:
Recombinant thiol isomerases were purchased from AbCam (Cambridge Mass.), recombinant insulin (bovine), bacitracin, dithiothreitol (DTT) buffers and all other chemicals were purchased from Sigma Aldrich (St. Louis, Mo.; while 384 well clear bottom plates were purchased from Corning (Corning, N.Y.).
The catalytic reduction of insulin by thiol isomerases in the presence of DTT results in aggregation of insulin chains. The turbidity of insulin aggregation can be monitored spectrophotometrically at an optical density (OD) at 650 nm. This approach has been used by multiple groups to identify thiol isomerase inhibitors in either a kinetic or endpoint fashion. A final concentration of either 10 μg/mL PDI, 30 μg/mL ERp5, 10 μg/mL ERp72 or 10 μg/mL thioredoxin, 125 μM insulin and 2 mM ethylenediaminetetraacetic acid (EDTA) in 30 μL of 100 mM potassium phosphate buffer was added to each experimental well plate, while negative control wells lacked any thiol isomerase. Lead compounds were diluted in a 6 point dose curve and the turbidity of insulin aggregation was measured kinetically each minute for 75 minutes using a Spectramax M3 plate reader (Molecular Devices, Sunnyvale, Calif.) Specificity assay utilized the insulin turbidity assay as well.

The subject of a further assay is HeLa cells. Put plainly: PrestoBlue cell proliferation assay, HeLa. Type of assay: cell-based. The procedure: Cells were plated at 6,000 cells/well in a 96-well plate and treated with the indicated concentration of zafirlukast 24 hours later. Cells were allowed to grow for an additional 24 hours before alterations in growth were measured by the PrestoBlue cell proliferation assay in triplicate. Fluorescence readings with an excitation at 570 nm and emission of 600 nm were collected and treated samples were converted to a percentage of the untreated controls. OVCar8 (human ovarian cancer cell line), HCT116 (human colon cancer), HeLa (cervical cancer cell line) and MDA-MB-231 (breast cancer cell line) cell lines were examined for their ability to inhibit cell proliferation. […] Table 1 illustrates the results of a cell proliferation assay testing zafirlukast against OVCar8 cells, HCT116 cells, HeLa cells and MDA-MB-231 cells.

For `COc1cc(C(=O)NS(=O)(=O)c2ccccc2C)ccc1Cc1cn(C)c2ccc(NC(=O)OC3CCCC3)cc12` [zafirlukast, 4-(5-cyclopentyloxycarbonylamino-1-methylindol-3-ylmethyl)-3-methoxy-N-o-tolylsulfonylbenzamide], at ERp5, the “inhibitory range on ERp5” value lay in the range of 10 to 300 µM. In addition, in the assay on HeLa cells (Homo sapiens, cervical cancer, 24 hours treatment), it took 30 µM to reach half-maximal inhibition (IC50). The “sensitivity of cell proliferation (in words)” value in the assay with HeLa cells (compared with OVCar8 and HCT116) was “less sensitive”.

By IC50 is commonly meant the concentration at which inhibition is half-maximal. Low readings indicate inhibition by little substance, high ones a need for much substance.
